No end group written: not given here.
Experiments:
Assay type in all cases: cell-based, human
Conditions in all cases: 24 h
[1] = tested on: A431 cells of skin cancer; assay: transwell migration test
Procedure: (§1) Inoculate SCC4 cells of head and neck cancer, SW579 cells of thyroid cancer, A549 cells of lung cancer, TE13 cells of esophageal squamous cell carcinoma, MGC803 cells of stomach cancer, MDA-MB-231 cells of breast cancer, UOK262 cells of kidney cancer, and A431 cells of skin cancer of human to transwell cells, 100 μL per well, and meanwhile add micropeptides HMMW I to IX at different doses to every cell. Add 0.6 mL of complete medium containing 10% FBS to the transwell cells to stimulate cell migration, and culture in 5% CO2 at 37 DEG C. for 24 h. Discard the medium in the wells, fix with 90% alcohol at room temperature for 30 min, stain with 0.1% crystal violet at room temperature for 10 min, rinse with clear water, gently wipe off the non-migrated cells in the upper layer with a cotton swab, observe under a microscope and select four fields of view to take pictures and count. Calculate the migration inhibition rate (MIR) of the cells according to the following formula: […]
(§2) The test was repeated independently three times. Mean±SD was calculated based on the test results. Statistical t test was done. Here, “the test was repeated independently three times” means that every dose of any type of cells was tested repeatedly three times, and then the above formula was used to calculate the number of migrated cells (Mean±SD). Value P was used to express statistical difference. The statistical significance of the results is a method for estimating how true the results are (the totality can be represented), *P<0.05 means significant difference, and **P<0.01 means very significant difference.

[2] = tested on: A549 cells of lung cancer; assay: transwell migration test
Procedure: as §1, §2

[3] = tested on: MDA-MB-231 cells of breast cancer; assay: transwell migration test
Procedure: as §1, §2

[4] = tested on: MGC803 cells of stomach cancer; assay: transwell migration test
Procedure: as §1, §2

[5] = tested on: SCC4 cells of head and neck cancer; assay: transwell migration test
Procedure: as §1, §2

[6] = tested on: SW579 cells of thyroid cancer; assay: transwell migration test
Procedure: as §1, §2

[7] = tested on: TE13 cells of esophageal squamous cell carcinoma; assay: transwell migration test
Procedure: as §1, §2

[8] = tested on: UOK262 cells of kidney cancer; assay: transwell migration test
Procedure: as §1, §2

[9] = tested on: A431 cells of skin cancer; assay: Matrigel transwell invasion test
Procedure: (§3) Dilute 10 mg/mL Matrigel with culture medium at 1:3, spread it on membranes of transwell cells and dry it in the air at room temperature. Use trypsin to digest and collect SCC4 cells of head and neck cancer, SW579 cells of thyroid cancer, A549 cells of lung cancer, TE13 cells of esophageal squamous cell carcinoma, MGC803 cells of stomach cancer, MDA-MB-231 cells of breast cancer, UOK262 cells of kidney cancer, and A431 cells of skin cancer of human, which were cultured to the logarithmic phase, wash with PBS twice and re-suspend with a blank culture medium. Adjust cell concentration to 1×10^5 cells/mL. Inoculate the cells to transwell cells, 100 μL per well, and meanwhile add micropeptides HMMW I to IX at different doses to every cell. Add 0.6 mL of complete medium containing 10% FBS to the transwell cells to stimulate cell invasion, and culture in 5% CO2 at 37 DEG C. for 24 h. Discard the medium in the wells, fix with 90% alcohol at room temperature for 30 min, stain with 0.1% crystal violet at room temperature for 10 min, rinse with clear water, gently wipe off the non-invaded cells in the upper layer with a cotton swab, observe under a microscope and select four fields of view to take pictures and count. Calculate the invasion inhibition rate (IIR) of the cells according to the following formula:
(§4) [formula] where Ntest is the number of invaded cells in the test groups (the groups at a dose of 1, 4 or 16 μM in the table), Ncontrol is the number of invaded cells in the blank control groups (the groups at a dose of 0 μM in the table). The test was repeated independently three times. Mean±SD was calculated based on the test results. Statistical t test was done. Value P was used to express statistical difference. The statistical significance of the results is a method for estimating how true the results are (the totality can be represented), *P<0.05 means significant difference, and **P<0.01 means very significant difference.

[10] = tested on: A549 cells of lung cancer; assay: Matrigel transwell invasion test
Procedure: as §3, §4

[11] = tested on: MDA-MB-231 cells of breast cancer; assay: Matrigel transwell invasion test
Procedure: as §3, §4

[12] = tested on: MGC803 cells of stomach cancer; assay: Matrigel transwell invasion test
Procedure: as §3, §4

[13] = tested on: SCC4 cells of head and neck cancer; assay: Matrigel transwell invasion test
Procedure: as §3, §4

[14] = tested on: SW579 cells of thyroid cancer; assay: Matrigel transwell invasion test
Procedure: as §3, §4

[15] = tested on: TE13 cells of esophageal squamous cell carcinoma; assay: Matrigel transwell invasion test
Procedure: as §3, §4

[16] = tested on: UOK262 cells of kidney cancer; assay: Matrigel transwell invasion test
Procedure: as §3, §4

## MGSTYNPGFSPRRSSVEAKMQSTSCSVRKSSTVTAWPAVVLLLSWGQRRGG-OH [HMMW-V]
[1]; dose 1 μM
  migration inhibition rate: 30.14%
[1]; dose 4 μM
  migration inhibition rate: 54.12%
[1]; dose 16 μM
  migration inhibition rate: 70.12%
[2]; dose 1 μM
  migration inhibition rate: 35.01%
[2]; dose 4 μM
  migration inhibition rate: 53.91%
[2]; dose 16 μM
  migration inhibition rate: 71.36%
[3]; dose 1 μM
  migration inhibition rate: 28.07%
[3]; dose 4 μM
  migration inhibition rate: 50.24%
[3]; dose 16 μM
  migration inhibition rate: 74.18%
[4]; dose 1 μM
  migration inhibition rate: 27.64%
[4]; dose 4 μM
  migration inhibition rate: 54.41%
[4]; dose 16 μM
  migration inhibition rate: 75.82%
[5]; dose 1 μM
  migration inhibition rate: 18.36%
[5]; dose 4 μM
  migration inhibition rate: 44.67%
[5]; dose 16 μM
  migration inhibition rate: 71.04%
[6]; dose 1 μM
  migration inhibition rate: 17.45%
[6]; dose 4 μM
  migration inhibition rate: 51.13%
[6]; dose 16 μM
  migration inhibition rate: 71.93%
[7]; dose 1 μM
  migration inhibition rate: 23.74%
[7]; dose 4 μM
  migration inhibition rate: 42.23%
[7]; dose 16 μM
  migration inhibition rate: 64.31%
[8]; dose 1 μM
  migration inhibition rate: 18.29%
[8]; dose 4 μM
  migration inhibition rate: 42.28%
[8]; dose 16 μM
  migration inhibition rate: 72.43%
[9]; dose 1 μM
  invasion inhibition rate: 32.19%
[9]; dose 4 μM
  invasion inhibition rate: 51.35%
[9]; dose 16 μM
  invasion inhibition rate: 69.29%
[10]; dose 1 μM
  invasion inhibition rate: 31.19%
[10]; dose 4 μM
  invasion inhibition rate: 51.27%
[10]; dose 16 μM
  invasion inhibition rate: 64.25%
[11]; dose 1 μM
  invasion inhibition rate: 27.25%
[11]; dose 4 μM
  invasion inhibition rate: 48.37%
[11]; dose 16 μM
  invasion inhibition rate: 70.50%
[12]; dose 1 μM
  invasion inhibition rate: 26.53%
[12]; dose 4 μM
  invasion inhibition rate: 50.24%
[12]; dose 16 μM
  invasion inhibition rate: 68.38%
[13]; dose 1 μM
  invasion inhibition rate: 20.34%
[13]; dose 4 μM
  invasion inhibition rate: 46.26%
[13]; dose 16 μM
  invasion inhibition rate: 74.71%
[14]; dose 1 μM
  invasion inhibition rate: 19.09%
[14]; dose 4 μM
  invasion inhibition rate: 44.23%
[14]; dose 16 μM
  invasion inhibition rate: 64.14%
[15]; dose 1 μM
  invasion inhibition rate: 20.29%
[15]; dose 4 μM
  invasion inhibition rate: 42.74%
[15]; dose 16 μM
  invasion inhibition rate: 66.69%
[16]; dose 1 μM
  invasion inhibition rate: 33.43%
[16]; dose 4 μM
  invasion inhibition rate: 53.27%
[16]; dose 16 μM
  invasion inhibition rate: 66.14%

Reference: patent publication US12565522B2, “Micropeptide HMMW and application thereof” (NANJING ANJI BIOTECHNOLOGY CO., LTD., priority 2019, dated 2026)
